Experimental data from patent publication US20130225830A1, “POLYMORPHS OF FEBUXOSTAT” (MAPI PHARMA LIMITED, priority 2010, published 2013).

Columns and labels:
Assay type in all cases: physicochemical
[1] = Hygroscopicity measurements (DVS sorption/desorption profiles)
Experimental: The sorption/desorption profiles of the forms of the present invention were tested at 25° C. under 0-90% relative humidity. The forms of the present invention were classified according to the following criteria: Deliquescent: Sufficient water is absorbed to form a liquid. […] Hygroscopic: Increase in mass is less than 15% and equal to or greater than 2%. Slightly hygroscopic: Increase in mass is less than 2% and equal to or greater than 0.2%. Non-hygroscopic: Increase in mass is less than 0.2%.

[2] = Bulk and tapped density measurements
Experimental: Bulk density testing: A febuxostat form in an amount which is sufficient to complete the test was passed through a 1.0 mm (No. 18) screen to break up agglomerates that may have formed during storage. The febuxostat form was then weighed (M) and the powder was added into a 10 mL graduated cylinder. The powder was carefully leveled without compacting, and the unsettled apparent volume, Vo, was read. The bulk density, in g per mL, was calculated by the formula: Bulk Density=M/Vo Tapped density testing: A febuxostat form in an amount which is sufficient to complete the test was passed through a 1.0 mm (No. 18) screen to break up agglomerates that may have formed during storage. The febuxostat form was then weighed and the powder was added into a 10 mL graduated cylinder. The powder was carefully leveled without compacting. The cylinder was tapped 500 times initially and the tapped volume, Va, was measured to the nearest graduated unit. The tapping was then repeated for additional 750 times and the tapped volume, Vb, was measured to the nearest graduated unit. If the difference between the two volumes was less than 2%, Vb was taken as the final tapped volume, Vf. The tapped density, in g per mL, was calculated by the formula: Tapped Density=M/Vf

[3] = Physical stability measurements (XRPD, DSC, TGA)
Experimental: Testing conditions: 40° C., 60° C., 40° C./RH 75%, 60° C./RH 75%, light
Testing procedure: About 50 mg of a febuxostat form were weighed in glass vial for testing the physical stability and were stored under different conditions for 1 week and 2 weeks, separately. The same febuxostat form was stored at −20° C. as control. XRPD, DSC and TGA of each of the febuxostat forms were measured at the end of the first and second weeks.

[4] = Aqueous solubility measurements; details: for pH: final pH of saturated solution
Experimental: Testing media: water, pH 1.2, 4.5, 6.8, 7.4 USP buffers, 0.01 N HCl, 0.1 N HCl, SGF, FaSSIF, FeSSIF.
The various testing media were prepared as follows:
pH 1.2 (USP): 50 mL of 0.2 M potassium chloride solution were placed in a 200 mL volumetric flask to which 85.0 mL of 0.2M hydrochloric acid solution were added followed by the addition of water to obtain the required volume.
pH 4.5 (USP): 50 mL of 0.2 M potassium biphthalate solution were placed in a 200 mL volumetric flask to which 8.8 mL of 0.2 M sodium hydroxide solution were added followed by the addition of water to obtain the required volume.
pH 6.8 (USP): 50 mL of 0.2 M monobasic potassium phosphate solution were placed in a 200 mL volumetric flask to which 22.4 mL of 0.2 M sodium hydroxide solution were added followed by the addition of water to obtain the required volume.
pH 7.4 (USP): 50 mL of 0.2 M monobasic potassium phosphate solution were placed in a 200 mL volumetric flask to which 39.1 mL of 0.2 M sodium hydroxide solution were added followed by the addition of water to obtain the required volume.
Simulated gastric fluid (SGF): 0.01 N HCl, 0.05% sodium lauryl sulfate, and 0.2% NaCl.
Fasted state simulated intestinal fluid (FaSSIF): 29 mM NaH2PO4, 3 mM Na taurocholate, 0.75 mM lecithin, 103 mM NaCl, and NaOH to obtain pH 6.5.
Fed state simulated intestinal fluid (FeSSIF): 144 mM acetic acid, 15 mM Na taurocholate, 3.75 mM lecithin, 204 mM NaCl, and NaOH to obtain pH 5.0.
Testing procedure: The tested febuxostat form was placed in each of the different media and was kept shaken for 24 hours at 25° C. Then, the saturated solution was filtered. The concentration of the febuxostat form in filtrate was determined by HPLC. The final pH was then tested. The test was conducted in duplication.

[5] = media 0.01N HCl, 24 hours at 25° C.
[6] = media 0.1N HCl, 24 hours at 25° C.
[7] = media FaSSIF, 24 hours at 25° C.
[8] = media FeSSIF, 24 hours at 25° C.
[9] = media pH 1.2 (USP), 24 hours at 25° C.
[10] = media pH 4.5 (USP), 24 hours at 25° C.
[11] = media pH 6.8 (USP), 24 hours at 25° C.
[12] = media pH 7.4 (USP), 24 hours at 25° C.
[13] = media water, 24 hours at 25° C.

Cc1nc(-c2ccc(OCC(C)C)c(C#N)c2)sc1C(=O)O [Form IX, 2-(3-cyano-4-isobutoxyphenyl)-4-methyl-5-thiazolecarboxylic acid]
Hygroscopicity classification ([1]; 25° C., 0-90% relative humidity): hygroscopic
hygroscopicity compared with Form G of U.S. Pat. No. 6,225,474 ([1]; DVS isotherm plots): less hygroscopic
Change in Mass (%) - ref, Desorption ([1]; Target % P/P0 0.0, 25° C.): 0.031%
Change in Mass (%) - ref, Sorption ([1]; Target % P/P0 0.0, 25° C.): 0.000%
Change in Mass (%) - ref, Desorption ([1]; Target % P/P0 10.0, 25° C.): 0.247%
Change in Mass (%) - ref, Hysteresis ([1]; Target % P/P0 10.0, 25° C.): 0.121%
Change in Mass (%) - ref, Sorption ([1]; Target % P/P0 10.0, 25° C.): 0.127%
Change in Mass (%) - ref, Desorption ([1]; Target % P/P0 20.0, 25° C.): 0.323%
Change in Mass (%) - ref, Hysteresis ([1]; Target % P/P0 20.0, 25° C.): 0.128%
Change in Mass (%) - ref, Sorption ([1]; Target % P/P0 20.0, 25° C.): 0.195%
Change in Mass (%) - ref, Desorption ([1]; Target % P/P0 30.0, 25° C.): 0.428%
Change in Mass (%) - ref, Hysteresis ([1]; Target % P/P0 30.0, 25° C.): 0.176%
Change in Mass (%) - ref, Sorption ([1]; Target % P/P0 30.0, 25° C.): 0.252%
Change in Mass (%) - ref, Desorption ([1]; Target % P/P0 40.0, 25° C.): 0.510%
Change in Mass (%) - ref, Hysteresis ([1]; Target % P/P0 40.0, 25° C.): 0.160%
Change in Mass (%) - ref, Sorption ([1]; Target % P/P0 40.0, 25° C.): 0.351%
Change in Mass (%) - ref, Desorption ([1]; Target % P/P0 50.0, 25° C.): 0.616%
Change in Mass (%) - ref, Hysteresis ([1]; Target % P/P0 50.0, 25° C.): 0.184%
Change in Mass (%) - ref, Sorption ([1]; Target % P/P0 50.0, 25° C.): 0.432%
Change in Mass (%) - ref, Desorption ([1]; Target % P/P0 60.0, 25° C.): 0.786%
Change in Mass (%) - ref, Hysteresis ([1]; Target % P/P0 60.0, 25° C.): 0.221%
Change in Mass (%) - ref, Sorption ([1]; Target % P/P0 60.0, 25° C.): 0.566%
Change in Mass (%) - ref, Desorption ([1]; Target % P/P0 70.0, 25° C.): 1.139%
Change in Mass (%) - ref, Hysteresis ([1]; Target % P/P0 70.0, 25° C.): 0.391%
Change in Mass (%) - ref, Sorption ([1]; Target % P/P0 70.0, 25° C.): 0.747%
Change in Mass (%) - ref, Desorption ([1]; Target % P/P0 80.0, 25° C.): 1.583%
Change in Mass (%) - ref, Hysteresis ([1]; Target % P/P0 80.0, 25° C.): 0.583%
Change in Mass (%) - ref, Sorption ([1]; Target % P/P0 80.0, 25° C.): 1.000%
Change in Mass (%) - ref, Desorption ([1]; Target % P/P0 90.0, 25° C.): 2.135%
Change in Mass (%) - ref, Sorption ([1]; Target % P/P0 90.0, 25° C.): 2.135%
Bulk Density [2]: 0.177 g/mL
Tapped Density [2]: 0.282 g/mL
bulk and tapped densities (in words) ([2]; compared among forms V, IX, XI and form G): lowest bulk and tapped densities
physical stability (XRPD, DSC, TGA) ([3]; 40° C., 60° C. and light at the end of the first and second week): stable
physical stability (XRPD, DSC, TGA), form conversion ([3]; 40° C./75% RH at the end of the second week): partially converted to form G
physical stability (XRPD, DSC, TGA), form conversion ([3]; 60° C./75% RH at the end of the first and second weeks): completely converted to form G
solubility at colon-simulated media and intestinal fluids (in words) ([4]; colon-simulated media (pHs=6.8-7.4) and intestinal fluids): improved solubility
pH [4, 5]: 2.078
pH [4, 6]: 1.060
pH [4, 7]: 6.246
pH [4, 8]: 4.983
pH ([4]; media SGF, 24 hours at 25° C.): 2.097
pH [4, 9]: 1.242
pH [4, 10]: 4.524
pH [4, 11]: 6.477
pH [4, 12]: 6.690
pH ([4]; media water, shaken 24 hours at 25° C.): 5.403
Visual solubility [4, 5]: Turbid + few particles
Visual solubility [4, 6]: Turbid + few particles
HPLC solubility [4, 7]: 606.65 µg/mL
Visual solubility [4, 7]: Turbid
HPLC solubility [4, 8]: 192.53 µg/mL
Visual solubility [4, 8]: Turbid
Visual solubility ([4]; media SGF, 24 hours at 25° C.): Turbid
Visual solubility [4, 9]: Turbid + few particles
HPLC solubility [4, 10]: 0.78 µg/mL
Visual solubility [4, 10]: Turbid + few particles
HPLC solubility [4, 11]: 1409.99 µg/mL
Visual solubility [4, 11]: Turbid + few particles
HPLC solubility [4, 12]: 4836.10 µg/mL
Visual solubility [4, 12]: Slightly turbid
HPLC solubility [4, 13]: 32.99 µg/mL
Visual solubility [4, 13]: Turbid + few particles
aqueous solubility (in words) ([4]; pH1.2 USP buffer, 0.01N HCl, 0.1N HCl and SGF): poor solubility
aqueous solubility (in words) ([4]; pH6.8 USP buffer, pH7.4 USP buffer, FaSSIF, FeSSIF): good solubility
